Assay results published in article PMC3858179 (Journal of medicinal chemistry, 2008).
Where two headings read alike, the source gives them in different places.

What was measured:
E. coli TS = E. coli TS (Escherichia coli, UniProt P0A884); experiment: Inhibition of isolated E. coli TS; format: biochemical; conditions: for % inhibition TS E. coli (number in parenthesis): at the concentration given
HCT 15 [1] = experiment: NCI tumor cell growth inhibition, HCT 15; format: cell-based; conditions: Homo sapiens, HCT-15, read-out: GI50 HCT 15
T. gondii DHFR [2] = target: T1, T. gondii DHFR (Toxoplasma gondii, UniProt Q07422); format: biochemical; conditions: 20 compounds jointly assayed, by both protocols (Table 1 and Table 2 conditions)
T1 sequence (Q07422 1-610): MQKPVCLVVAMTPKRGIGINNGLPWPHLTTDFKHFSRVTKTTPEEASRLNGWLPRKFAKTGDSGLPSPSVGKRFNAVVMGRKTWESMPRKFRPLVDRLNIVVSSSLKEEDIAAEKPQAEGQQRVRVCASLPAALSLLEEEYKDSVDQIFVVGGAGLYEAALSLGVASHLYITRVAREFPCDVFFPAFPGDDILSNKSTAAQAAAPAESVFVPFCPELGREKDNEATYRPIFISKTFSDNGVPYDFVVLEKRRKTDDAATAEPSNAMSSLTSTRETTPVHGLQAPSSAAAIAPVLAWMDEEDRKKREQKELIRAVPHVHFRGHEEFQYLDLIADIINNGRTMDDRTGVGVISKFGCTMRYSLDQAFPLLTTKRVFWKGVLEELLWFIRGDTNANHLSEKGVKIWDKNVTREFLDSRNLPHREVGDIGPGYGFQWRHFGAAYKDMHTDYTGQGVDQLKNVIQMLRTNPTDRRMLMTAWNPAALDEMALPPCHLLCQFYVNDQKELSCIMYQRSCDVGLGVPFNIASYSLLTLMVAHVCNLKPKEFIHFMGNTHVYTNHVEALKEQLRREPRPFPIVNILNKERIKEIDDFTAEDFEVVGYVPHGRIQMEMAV

E. coli DHFR = E. coli DHFR (Escherichia coli, UniProt P0ABQ4); experiment: Inhibition of isolated E. coli DHFR; format: biochemical
T. gondii DHFR [3] = target: T1, T. gondii DHFR; format: biochemical
human DHFR = target: T2, human DHFR (Homo sapiens, UniProt P00374); experiment: Inhibition of isolated human DHFR; format: biochemical
T2 sequence (P00374 1-187): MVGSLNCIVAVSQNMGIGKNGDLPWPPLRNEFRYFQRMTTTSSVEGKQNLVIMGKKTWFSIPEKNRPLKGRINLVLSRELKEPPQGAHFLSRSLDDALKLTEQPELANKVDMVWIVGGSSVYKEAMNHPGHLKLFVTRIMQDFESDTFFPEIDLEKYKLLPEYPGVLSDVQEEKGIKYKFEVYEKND

60 tumor cell lines [4] = experiment: NCI in vitro preclinical antitumor screening, 60 tumor cell lines; format: cell-based
SW-620 [5] = experiment: NCI tumor cell growth inhibition, SW-620; format: cell-based; conditions: Homo sapiens, SW-620, read-out: GI50 SW-620
human TS = human TS (Homo sapiens, UniProt P04818); experiment: Inhibition of isolated human TS; format: biochemical
T. gondii TS = T. gondii TS (Toxoplasma gondii, UniProt Q07422); format: biochemical
60 tumor cell lines [6] = conditions: in 11 of the 60 tumor cell lines evaluated; cited from earlier work
U251 = conditions: read-out: GI50 U251; Central Nervous System Cancer; cited from earlier work
MOLT-4 = conditions: read-out: GI50 MOLT-4; Leukemia; cited from earlier work
[7] = system: folyl poly-γ-glutamate synthetase (FPGS); conditions: cited from earlier work
HCT 15 [8] = conditions: read-out: GI50 HCT 15; Colon Cancer; cited from earlier work
[9] = system: human CCRF-CEM leukemia cells; conditions: read-out: EC50 growth of human CCRF-CEM leukemia cells in culture; cited from earlier work
HL-60 × (TB) = conditions: read-out: GI50 HL-60 × (TB); Leukemia; cited from earlier work
K-562 = conditions: read-out: GI50 K-562; Leukemia; cited from earlier work
HT29 = conditions: read-out: GI50 HT29; Colon Cancer; cited from earlier work
SF268 = conditions: read-out: GI50 SF268; Central Nervous System Cancer; cited from earlier work
NCI-H460 = conditions: read-out: GI50 NCI-H460; Nonsmall Cell Lung Cancer; cited from earlier work
MCF-7 = conditions: read-out: GI50 MCF-7; Breast Cancer; cited from earlier work
SW-620 [10] = conditions: read-out: GI50 SW-620; Colon Cancer; cited from earlier work
ACHN = conditions: read-out: GI50 ACHN; Renal Cancer; cited from earlier work
CAKI-1 = conditions: read-out: GI50 CAKI-1; Renal Cancer; cited from earlier work
PC-3 = conditions: read-out: GI50 PC-3; Prostrate Cancer; cited from earlier work
RPMI-8226 = conditions: read-out: GI50 RPMI-8226; Leukemia; cited from earlier work
CCRF-CEM = conditions: read-out: GI50 CCRF-CEM; Leukemia; cited from earlier work

Chain of E. coli TS (P0A884 whole entry): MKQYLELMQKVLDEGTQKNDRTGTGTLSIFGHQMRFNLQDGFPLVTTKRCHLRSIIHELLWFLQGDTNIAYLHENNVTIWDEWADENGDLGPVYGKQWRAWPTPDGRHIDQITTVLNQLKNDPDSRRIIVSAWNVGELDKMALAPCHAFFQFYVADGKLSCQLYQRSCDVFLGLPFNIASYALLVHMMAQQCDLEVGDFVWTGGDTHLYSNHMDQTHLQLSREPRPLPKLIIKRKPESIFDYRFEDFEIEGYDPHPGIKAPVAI
Chain of human TS (P04818 whole entry): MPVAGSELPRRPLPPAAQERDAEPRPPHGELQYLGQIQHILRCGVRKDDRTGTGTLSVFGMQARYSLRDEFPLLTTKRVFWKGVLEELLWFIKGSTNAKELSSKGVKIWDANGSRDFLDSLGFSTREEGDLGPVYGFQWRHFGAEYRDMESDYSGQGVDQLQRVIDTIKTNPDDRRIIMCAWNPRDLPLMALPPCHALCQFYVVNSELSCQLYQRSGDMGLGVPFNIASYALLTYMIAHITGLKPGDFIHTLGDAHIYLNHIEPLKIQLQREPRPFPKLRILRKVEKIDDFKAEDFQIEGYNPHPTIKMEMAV
Chain of E. coli DHFR (P0ABQ4 whole entry): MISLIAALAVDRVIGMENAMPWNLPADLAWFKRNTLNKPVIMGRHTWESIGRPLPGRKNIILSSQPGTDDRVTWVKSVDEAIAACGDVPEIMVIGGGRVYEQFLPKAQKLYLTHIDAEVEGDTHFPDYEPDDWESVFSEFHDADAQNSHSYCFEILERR

Structure (SMILES) | IC50 (E. coli TS) [nM] | % inhibition TS E. coli (number in parenthesis) (E. coli TS) [%] | other results
CCCc1c(Sc2ccc(OC)c(OC)c2)[nH]c2nc(N)nc(N)c12 [Compound 16, 2,4-Diamino-5-propyl-6-(3′,4′-dimethoxyphenylsulfanyl)-7H-pyrrolo[2,3-d]pyrimidine] | > 11000 | 0 | –
CCCc1c(Sc2ccc(C(=O)N[C@@H](CCC(=O)O)C(=O)O)cc2)[nH]c2nc(N)nc(N)c12 [Compound 3, N-[4-[(2,4-Diamino-5-propyl-7H-pyrrolo[2,3-d]pyrimidin-6-yl)sulfanyl]benzoyl]-L-glutamic Acid] | – | – | GI50 (HCT 15 [1]): > 100000 nM; potency rank against T. gondii DHFR, in words (T. gondii DHFR [2]): three most potent compounds; inhibition of E. coli DHFR, in words (E. coli DHFR): good inhibitor; inhibition of T. gondii DHFR, in words (T. gondii DHFR [3]): good inhibitor; inhibition of hDHFR, in words (human DHFR): good inhibitor; GI50 (60 tumor cell lines [4]): < 1000 nM; GI50 (60 tumor cell lines [4]; read-out: GI50 tumor cells in culture): ≤ 100 nM; GI50 (SW-620 [5]): 1210 nM; inhibition of E. coli TS, in words (E. coli TS): poor inhibitor; inhibition of hTS, in words (human TS): poor inhibitor; inhibition of T. gondii TS, in words (T. gondii TS): moderate inhibition
CC(C)c1c(Sc2ccc3ccccc3c2)[nH]c2nc(N)nc(N)c12 [Compound 26, 2,4-Diamino-5-isopropyl-6-(2′-napthylsulfanyl)-7H-pyrrolo[2,3-d]pyrimidine] | > 2400 | 0 | –
CCCc1c(Sc2ccccc2)[nH]c2nc(N)nc(N)c12 [Compound 13, 2,4-Diamino-5-propyl-6-(phenylsulfanyl)-7H-pyrrolo[2,3-d]py-rimidine] | > 14000 | 0 | –
CCCc1c(Sc2c(Cl)cccc2Cl)[nH]c2nc(N)nc(N)c12 [Compound 11, 2,4-Diamino-5-propyl-6-(2′,6′-dichlorophenylsulfanyl)-7H-pyrrolo[2,3-d]pyrimidine] | > 22000 | 0 | –
CC(C)c1c(Sc2cccc3ccccc23)[nH]c2nc(N)nc(N)c12 [Compound 25, 2,4-Diamino-5-isopropyl-6-(1′-napthylsulfanyl)-7H-pyrrolo[2,3-d]pyrimidine] | > 12000 | 0 | –
CCCc1c(Sc2ccc(OC)cc2)[nH]c2nc(N)nc(N)c12 [Compound 14, 2,4-Diamino-5-propyl-6-(4′-methoxyphenylsulfanyl)-7H-pyr-rolo[2,3-d]pyrimidine] | > 13000 | 0 | –
COc1ccc(Sc2[nH]c3nc(N)nc(N)c3c2C(C)C)cc1OC [Compound 24, 2,4-Diamino-5-isopropyl-6-(3′,4′-dimethoxyphenylsulfanyl)-7H-pyrrolo[2,3-d]pyrimidine] | > 2300 | 0 | potency rank against T. gondii DHFR, in words (T. gondii DHFR [2]): among the six least potent compounds
COc1ccc(OC)c(Sc2[nH]c3nc(N)nc(N)c3c2C(C)C)c1 [Compound 23, 2,4-Diamino-5-isopropyl-6-(2′,5′-dimethoxyphenylsulfanyl)-7H-pyrrolo[2,3-d]pyrimidine] | > 2300 | 0 | potency rank against T. gondii DHFR, in words (T. gondii DHFR [2]): among the six least potent compounds
CCCc1c(Sc2cccc3ccccc23)[nH]c2nc(N)nc(N)c12 [Compound 17, 2,4-Diamino-5-propyl-6-(1′-napthylsulfanyl)-7H-pyrrolo[2,3-d]pyrimidine] | > 12000 | 0 | –
CC(C)c1c(Sc2ccc(Cl)c(Cl)c2)[nH]c2nc(N)nc(N)c12 [Compound 27, 2,4-Diamino-5-isopropyl-6-(3′,4′-dichlorophenylsulfanyl)-7H-pyrrolo[2,3-d]pyrimidine] | > 2300 | 0 | potency rank against T. gondii DHFR, in words (T. gondii DHFR [2]): among the six least potent compounds
CCCc1c(Sc2cc(OC)ccc2OC)[nH]c2nc(N)nc(N)c12 [Compound 15, 2,4-Diamino-5-propyl-6-(2′,5′-dimethoxyphenylsulfanyl)-7H-pyrrolo[2,3-d]pyrimidine] | > 12000 | 0 | –
CCCc1c(Sc2c(C)cccc2C)[nH]c2nc(N)nc(N)c12 [Compound 12, 2,4-Diamino-5-propyl-6-(2′,6′-dimethylphenylsulfanyl)-7H-pyrrolo[2,3-d] pyrimidine] | > 24000 | 0 | –
CC(C)c1c(Sc2c(Cl)cccc2Cl)[nH]c2nc(N)nc(N)c12 [Compound 19, 2,4-Diamino-5-isopropyl-6-(2′,6′-dichlorophenylsulfanyl)-7H-pyrrolo[2,3-d]pyrimidine] | > 2200 | 0 | –
Cc1c(Sc2ccc(C(=O)N[C@@H](CCC(=O)O)C(=O)O)cc2)[nH]c2nc(N)nc(N)c12 [Compound 1] | – | – | GI50 (60 tumor cell lines [6]): ≤ 100 nM; GI50 (U251): 824 nM; GI50 (MOLT-4): < 10 nM; FPGS substrate activity [7]: reasonable; GI50 (HCT 15 [8]): 59500 nM; EC50 [9]: 190 nM; GI50 (HL-60 × (TB)): 43.5 nM; GI50 (K-562): 29.5 nM; GI50 (HT29): 160 nM; GI50 (SF268): 74700 nM; GI50 (NCI-H460): 631 nM; GI50 (MCF-7): > 100000 nM; GI50 (SW-620 [10]): 124 nM; GI50 (ACHN): 24200 nM; GI50 (CAKI-1): > 100000 nM; GI50 (PC-3): 43.6 nM; GI50 (RPMI-8226): < 10 nM; GI50 (CCRF-CEM): 221 nM
Cc1cccc(C)c1Sc1[nH]c2nc(N)nc(N)c2c1C(C)C [Compound 20, 2,4-Diamino-5-isopropyl-6-(2′,6′-dimethylphenylsulfanyl)-7H-pyrrolo[2,3-d] pyrimidine] | > 13000 | 0 | –
CCCc1c(Sc2ccc3ccccc3c2)[nH]c2nc(N)nc(N)c12 [Compound 18, 2,4-Diamino-5-propyl-6-(2′-napthylsulfanyl)-7H-pyrrolo[2,3-d]pyrimidine] | > 12000 | 0 | –
CN(Cc1cnc2nc(N)nc(N)c2n1)c1ccc(C(=O)N[C@@H](CCC(=O)O)C(=O)O)cc1 [MTX, methotrexate, reference compound] | – | – | potency rank against T. gondii DHFR, in words (T. gondii DHFR [2]): three most potent compounds; EC50 [9]: 12.5 nM
COc1ccc(Sc2[nH]c3nc(N)nc(N)c3c2C(C)C)cc1 [Compound 22, 2,4-Diamino-5-isopropyl-6-(4′-methoxyphenylsulfanyl)-7H-pyrrolo[2,3-d]pyrimidine] | > 2500 | 0 | –
CC(C)c1c(Sc2ccccc2)[nH]c2nc(N)nc(N)c12 [Compound 21, 2,4-Diamino-5-isopropyl-6-(phenylsulfanyl)-7H-pyrrolo[2,3-d]pyrimidine] | > 2700 | 0 | –
